Reference: US20060115804A1, “Method of studying living cells” (priority 2002, published 2006)

System: Primary human osteoblasts
Assay: Formation and mineralisation of bone nodules (962 cm^-1 hydroxyapatite Raman peak) by osteoblasts cultured on 45S5 Bioglass
Format: cell-based
Settings: culture medium supplemented with BGP; cells on 45S5 Bioglass substrates
Procedure: Primary human osteoblasts were cultured on 45S5 Bioglass® substrates in order to induce formation of new bone. The formation of new bone can be detected with high sensitivity using Raman spectroscopy with 785 nm lasers by detecting the 962 cm^−1 Raman peak of hydroxyapatite (the mineral phase of bone). […] Only peaks corresponding to intrinsic cellular components were measured.

## O=P(O)(O)OC(CO)CO [beta-glycerophosphate (BGP), beta-glycerophosphate]
  Hydroxyapatite Raman peak (formation of bone nodules): a strong peak corresponding to hydroxyapatite was detected
